Measured values from US20260256934A1, “ANTIBODY-DRUG CONJUGATE INCLUDING MUTANT Fc REGION” (DAIICHI SANKYO COMPANY, LIMITED, priority 2022, published 2026).

Experiments:
[1] = molecular target: T1, human AQ mutant (Hu-AQ) STING C-terminal binding domain protein (Homo sapiens, UniProt Q86WV6, G230A/H232R/R293Q); assay: Thermal shift assay with recombinant STING C-terminal binding domain protein (Hu-AQ); conditions: test compound 0.5 mM; Tm minus Tm of well without compound
T1 construct: made in house; host or cells: E. coli Rosetta 2 (DE3), co-expressed with BirA
Protocol: (§1) Each expression strain was added to TB broth containing 100 μg/mL ampicillin, 50 μg/mL streptomycin, and 30 μg/mL kanamycin, and cultured at 37° C. Expression was then induced with 100 µM IPTG, and the cells were further cultured at 16° C.
(§2) The culture broth was centrifuged, and the obtained bacteria were frozen and thawed. The proteins were extracted by sonication, and the supernatant was collected by centrifugation. The resulting supernatant was purified through a HisTrap FF column (GE Healthcare) using an AKTAexpress chromatography system (GE Healthcare, IL, US), made to pass through a Superdex200 16/60 column (GE Healthcare), and eluted.
(§3) The binding of a compound to each STING C-terminal binding domain protein was determined by a thermal shift assay, which uses the increase in the thermal denaturation temperature of the protein as an indicator.
(§4) Specifically, each test compound (final concentration 0.5 mM), SYPRO Orange (final concentration: 20×concentration), and the STING protein were mixed in a 384-well real-time PCR plate using a plate shaker. […] Tm (the midpoint of the unfolding transition) (° C.) was determined as the temperature at which the rate of increase in fluorescence intensity reached its maximum value. The shift of Tm by the test compound was calculated as ΔTm (° C.) by subtracting, from the Tm value of each compound, the Tm value of the well without the compound.

[2] = molecular target: T2, human wild-type (Hu-WT) STING C-terminal binding domain protein (Homo sapiens, UniProt Q86WV6, H232R); assay: Thermal shift assay with recombinant STING C-terminal binding domain protein (Hu-WT); conditions: test compound 0.5 mM; Tm minus Tm of well without compound
T2 construct: made in house; host or cells: E. coli Rosetta 2 (DE3), co-expressed with BirA
Protocol: as §1, §2, §3, §4

[3] = molecular target: T3, mouse wild type (Ms-WT) STING C-terminal binding domain protein (Mus musculus, UniProt Q3TBT3); assay: Thermal shift assay with recombinant STING C-terminal binding domain protein (Ms-WT); conditions: test compound 0.5 mM; Tm minus Tm of well without compound
T3 construct: made in house; host or cells: E. coli Rosetta 2 (DE3), co-expressed with BirA
Protocol: as §1, §2, §3
Specifically, each test compound (final concentration 0.5 mM), SYPRO Orange (final concentration: 20×concentration), and the STING protein were mixed in a 384-well real-time PCR plate using a plate shaker. A real-time PCR system was used to increase the temperature from 25° C. to 95° C. at a rate of 0.03° C. per second, and the thermal denaturation temperature of the protein was measured using the fluorescence emitted by SYPRO Orange as an indicator. Tm (the midpoint of the unfolding transition) (° C.) was determined as the temperature at which the rate of increase in fluorescence intensity reached its maximum value. The shift of Tm by the test compound was calculated as ΔTm (° C.) by subtracting, from the Tm value of each compound, the Tm value of the well without the compound.

[4] = molecular target: T4, human REF mutant (Hu-REF) STING C-terminal binding domain protein (Homo sapiens, UniProt Q86WV6); assay: Thermal shift assay with recombinant STING C-terminal binding domain protein (Hu-REF); conditions: test compound 0.5 mM; Tm minus Tm of well without compound
T4 construct: made in house; host or cells: E. coli Rosetta 2 (DE3), co-expressed with BirA
Protocol: as §1, §2, §3, §4

human FcγRIIb/c = molecular target: T5, human FcγRIIb/c (Homo sapiens, UniProt P31994); assay: Human FcγRIIb/c binding activity by SPR; conditions: anti-EGFR antibodies as analyte, 0.9-4.7 μM
T5 construct: purchased R&D systems
T5 sequence (P31994 43-310): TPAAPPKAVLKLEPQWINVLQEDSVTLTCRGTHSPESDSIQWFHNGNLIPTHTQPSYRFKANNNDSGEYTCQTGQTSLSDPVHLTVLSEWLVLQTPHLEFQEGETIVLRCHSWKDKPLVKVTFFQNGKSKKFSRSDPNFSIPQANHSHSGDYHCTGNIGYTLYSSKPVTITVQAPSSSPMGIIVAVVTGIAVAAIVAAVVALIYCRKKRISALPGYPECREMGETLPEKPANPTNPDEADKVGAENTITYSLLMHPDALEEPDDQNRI
Protocol: (§5) The binding activity was determined by directly immobilizing human FcγR as a ligand onto a sensor chip, then adding each anti-EGFR antibody as an analyte to the sensor chip, and measuring the interaction between the ligand and the analyte by SPR. Recombinant Human Fc gammaRIIA/CD32a (R167) Protein (R&D systems) was immobilized as human FcγRIIa onto Sensor Chip CM5 according to the instructions of the kit. Then, the anti-EGFR antibody prepared at each concentration with HBS-EP+ was added to the sensor chip for 120 sec at a flow rate of 30 μL/min.
Recombinant Human Fc gamma RIIB/C (CD32b/c) Protein (R&D systems) was used as human FcγRIIb/c.

human FcγRIIIa = molecular target: T6, human FcγRIIIa (Homo sapiens, UniProt P08637); assay: Human FcγRIIIa binding activity by SPR; conditions: anti-EGFR antibodies as analyte, 0.9-4.7 μM
T6 construct: purchased R&D systems
Protocol: as §5
Recombinant Human Fc gamma RIIIA/CD16a protein (R&D systems) was used as human FcγRIIIa.

human FcγRIIIb = molecular target: T7, human FcγRIIIb (Homo sapiens, UniProt O75015); assay: Human FcγRIIIb binding activity by SPR; conditions: anti-EGFR antibodies as analyte, 0.9-4.7 μM
T7 construct: purchased R&D systems
Protocol: as §5
Recombinant Human Fc gamma RIIIB/CD16b Protein (R&D systems) was used as human FcγRIIIb.

human FcγRI = molecular target: T8, human FcγRI (Homo sapiens, UniProt P12314); assay: Human FcγRI binding activity by SPR (Biacore T200); conditions: anti-EGFR antibodies as analyte, 0.3-4.7 μM; His-tagged FcγRI captured
T8 construct: purchased R&D systems
Protocol: Anti-EGFR antibodies with various introduced effector-less mutations were evaluated for their binding activity against human FcγRI using Biacore T200 (Cytiva). […] The anti-EGFR antibody B used in the Test Example was obtained as HBS-EP+ solution by subjecting commercially available Vectibix Intravenous Infusion (Takeda Pharmaceuticals) (100 mg/5 mL) to buffer exchange using Amicon Ultra-15 Centrifugal Filter Unit (50K, produced by Merck). The binding activity was determined by allowing His-tagged human FcγRI to be captured as a ligand onto an anti-His antibody-immobilized sensor chip, then adding each anti-EGFR antibody as an analyte to the sensor chip, and measuring the interaction between the ligand and the analyte by Surface Plasmon Resonance (SPR). Anti-6× His tag antibody [AD1.1.10] (abcam) was immobilized onto Sensor Chip CM5 (Cytiva) according to the instructions of the kit. Recombinant Human Fc gamma RI/CD64 Protein (R&D systems) prepared at 10 μg/mL with HBS-EP+(GE Healthcare) was contacted with the sensor chip for 60 sec at 10 μL/min and thereby captured. Then, the anti-EGFR antibody prepared at each concentration with HBS-EP+ was added to the sensor chip for 120 sec at a flow rate of 30 μL/min.

T3 sequence (Q3TBT3 with tags, fused parts or gaps): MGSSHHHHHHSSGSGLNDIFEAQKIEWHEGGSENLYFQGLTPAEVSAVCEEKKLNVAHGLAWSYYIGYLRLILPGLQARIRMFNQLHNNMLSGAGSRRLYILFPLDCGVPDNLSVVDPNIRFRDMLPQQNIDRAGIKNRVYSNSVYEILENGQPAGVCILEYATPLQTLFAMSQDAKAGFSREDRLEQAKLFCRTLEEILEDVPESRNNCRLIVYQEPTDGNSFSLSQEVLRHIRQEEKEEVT
T4 sequence (Q86WV6 with tags, fused parts or gaps, change not shown): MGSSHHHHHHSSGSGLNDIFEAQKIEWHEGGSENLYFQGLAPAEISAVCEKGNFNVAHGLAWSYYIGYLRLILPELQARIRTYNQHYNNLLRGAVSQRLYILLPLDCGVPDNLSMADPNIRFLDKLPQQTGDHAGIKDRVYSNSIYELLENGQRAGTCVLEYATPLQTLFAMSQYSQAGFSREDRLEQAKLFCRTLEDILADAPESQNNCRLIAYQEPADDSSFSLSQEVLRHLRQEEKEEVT
T2 sequence (Q86WV6 with tags, fused parts or gaps H232R): as the sequence (Q86WV6 with tags, fused parts or gaps, change not shown) above, with H133R counted along it
T1 sequence (Q86WV6 with tags, fused parts or gaps G230A/H232R/R293Q): as the sequence (Q86WV6 with tags, fused parts or gaps, change not shown) above, with G131A, H133R, R194Q counted along it
T8 sequence (P12314 16-374): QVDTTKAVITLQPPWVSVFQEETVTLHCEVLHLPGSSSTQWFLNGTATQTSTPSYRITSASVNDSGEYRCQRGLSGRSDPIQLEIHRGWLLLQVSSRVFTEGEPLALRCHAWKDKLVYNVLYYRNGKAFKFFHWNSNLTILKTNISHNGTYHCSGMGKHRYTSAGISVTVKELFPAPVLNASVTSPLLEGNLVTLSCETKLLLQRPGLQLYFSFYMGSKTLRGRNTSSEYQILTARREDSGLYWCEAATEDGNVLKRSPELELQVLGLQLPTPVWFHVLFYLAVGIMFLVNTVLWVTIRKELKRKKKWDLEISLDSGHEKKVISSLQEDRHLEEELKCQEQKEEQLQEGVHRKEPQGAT
T6 sequence (P08637 17-254): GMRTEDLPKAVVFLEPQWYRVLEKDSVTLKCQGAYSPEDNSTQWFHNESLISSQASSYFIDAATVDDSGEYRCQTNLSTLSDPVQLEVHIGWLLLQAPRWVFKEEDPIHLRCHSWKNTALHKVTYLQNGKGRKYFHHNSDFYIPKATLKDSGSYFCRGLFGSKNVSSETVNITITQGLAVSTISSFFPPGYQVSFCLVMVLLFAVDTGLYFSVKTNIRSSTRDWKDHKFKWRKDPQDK
T7 sequence (O75015 17-200): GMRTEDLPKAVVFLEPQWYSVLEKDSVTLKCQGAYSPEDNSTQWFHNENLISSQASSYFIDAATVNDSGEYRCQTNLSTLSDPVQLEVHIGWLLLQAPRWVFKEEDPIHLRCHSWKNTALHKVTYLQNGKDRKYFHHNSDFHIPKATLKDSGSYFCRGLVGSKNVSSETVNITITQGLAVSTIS

Row | ΔTm (° C.) Hu-AQ [1] | ΔTm (° C.) Hu-WT [2] | ΔTm (° C.) Ms-WT [3] | ΔTm (° C.) Hu-REF [4] | Molecule | also measured
1 | 11.3 °C | 8.4 °C | 12.9 °C | 3.4 °C | O=c1c2ncn([C@@H]3O[C@@H]4COP(=O)(S)O[C@H]5[C@@H](O)[C@H](n6cc7c8c(ncnc86)NCCC7)O[C@@H]5COP(=O)(S)O[C@@H]3[C@@H]4O)c2ncn1CCO (single isomer, unassigned) [Compound 6b] | –
2 | 17.8 °C | 14.0 °C | 15.8 °C | 7.3 °C | O=c1c2ncn([C@@H]3O[C@@H]4COP(=O)(S)O[C@H]5[C@@H](F)[C@H](n6cc7c8c(ncnc86)SCCC7)O[C@@H]5COP(=O)(S)O[C@@H]3[C@@H]4O)c2ncn1CCO (single isomer, unassigned) [Compound 48b] | –
3 | 14.0 °C | 12.0 °C | 16.7 °C | 6.5 °C | O=c1c2ncn([C@@H]3O[C@@H]4COP(=O)(S)O[C@H]5[C@@H](F)[C@H](n6cc7c8c(ncnc86)NCCC7)O[C@@H]5COP(=O)(S)O[C@@H]3[C@@H]4O)c2ncn1CCO (single isomer, unassigned) [Compound 34b] | –
4 | – | – | – | – | O=c1c2ncn([C@@H]3O[C@@H]4COP(=O)(S)O[C@H]5[C@@H](O)[C@H](n6cc7c8c(ncnc86)NCCC7)O[C@@H]5COP(=O)(S)O[C@@H]3[C@@H]4F)c2ncn1CCO (single isomer, unassigned) [Compound 39b] | ΔTm at 500 µM [1]: 10.5 °C; ΔTm at 500 µM [2]: 8.9 °C; ΔTm at 500 µM [3]: 13.1 °C; ΔTm at 500 µM [4]: 3.7 °C
5 | 10.8 °C | 9.2 °C | 12.3 °C | 4.4 °C | O=c1c2ncn([C@@H]3O[C@@H]4COP(=O)(O)O[C@H]5[C@@H](F)[C@H](n6cc7c8c(ncnc86)NCCC7)O[C@@H]5COP(=O)(S)O[C@@H]3[C@@H]4O)c2ncn1CCO (single isomer, unassigned) [Compound 52b] | –
6 | 14.3 °C | 11.4 °C | 17.0 °C | 6.2 °C | O=c1c2ncn([C@@H]3O[C@@H]4COP(=O)(S)O[C@H]5[C@@H](F)[C@H](n6cc7c8c(ncnc86)NCCC7)O[C@@H]5COP(=O)(S)O[C@@H]3[C@@H]4F)c2ncn1CCO (single isomer, unassigned) [Compound 44b] | –
7 | – | – | – | – | IgG2: IgG2-type anti-EGFR antibody, commercially available Vectibix Intravenous Infusion; heavy chain SEQ ID NO: 35 | RU value indicating binding to human FcγRIIb/c (rank order) (human FcγRIIb/c): IgG1 WT>IgG2>LALA>LALA-DG; RU value indicating binding to human FcγRIIIa (rank order) (human FcγRIIIa): IgG1 WT>LALA>IgG2>LALA-DG; RU value indicating binding to human FcγRIIIb (rank order) (human FcγRIIIb): IgG1 WT>LALA≈IgG2≈LALA-DG; RU value indicating binding to human FcγRI (rank order) (human FcγRI): IgG1 WT>>LALA>>IgG2>LALA-DG
